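Tested at 5 concentrations; 48 h exposure; 96-well plates; endpoints linearly interpolated, else capped at highest concentration. GI50 is the concentration that inhibits growth by half.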 The source made the active and inactive calls. No stated cut-off is given here; in the data, active = GI50 up to about 1.1 µM and inactive = higher.
Key:
Experiment in all cases: NCI tumour cell line growth inhibition, 48 h
786-0 = tested on: 786-0
ACHN = tested on: ACHN
HCT-116 = tested on: HCT-116
HL-60 = tested on: HL-60
HT-29 = tested on: HT-29
Hs-578T = tested on: Hs-578T
MDA-MB-231 = tested on: MDA-MB-231
MDA-MB-435 = tested on: MDA-MB-435
MDA-N = tested on: MDA-N
NCI-H226 = tested on: NCI-H226
NCI-H522 = tested on: NCI-H522
OVCAR-4 = tested on: OVCAR-4
OVCAR-5 = tested on: OVCAR-5
OVCAR-8 = tested on: OVCAR-8
SK-MEL-28 = tested on: SK-MEL-28
SK-OV-3 = tested on: SK-OV-3
T47D = tested on: T47D
UO-31 = tested on: UO-31
HCC 2998 = tested on: HCC 2998
SR = tested on: SR

Structure (SMILES) | GI50 (786-0) | GI50 (ACHN) | GI50 (HCT-116) | GI50 (HL-60) | GI50 (HT-29) | GI50 (Hs-578T) | GI50 (MDA-MB-231) | GI50 (MDA-MB-435) | GI50 (MDA-N) | GI50 (NCI-H226) | GI50 (NCI-H522) | GI50 (OVCAR-4) | GI50 (OVCAR-5) | GI50 (OVCAR-8) | GI50 (SK-MEL-28) | GI50 (SK-OV-3) | GI50 (T47D) | GI50 (UO-31) | GI50 (HCC 2998) | GI50 (SR)
NC(=O)c1ccc(C(=O)Nc2ccc([As](=O)(O)O)cc2)cc1 | > 100 µM (inactive) | > 100 µM (inactive) | > 100 µM (inactive) | > 100 µM (inactive) | > 100 µM (inactive) | > 100 µM (inactive) | > 100 µM (inactive) | > 100 µM (inactive) | > 100 µM (inactive) | > 100 µM (inactive) | > 100 µM (inactive) | > 100 µM (inactive) | > 100 µM (inactive) | > 100 µM (inactive) | > 100 µM (inactive) | > 100 µM (inactive) | > 100 µM (inactive) | > 100 µM (inactive) | – | –
CCOC(=O)c1cc2c(=Cc3ccc(N(C)C)cc3)c3ccccc3n2[n+]1C | 1.93 µM (inactive) | 5.87 µM (inactive) | 0.537 µM (active) | 0.372 µM (active) | < 0.01 µM (active) | – | 3.86 µM (inactive) | – | 1.23 µM (inactive) | 8.24 µM (inactive) | – | 3.1 µM (inactive) | 5.98 µM (inactive) | – | 1.53 µM (inactive) | 3.94 µM (inactive) | 3.12 µM (inactive) | 6.12 µM (inactive) | 1.69 µM (inactive) | –
N#Cc1c(C#N)c(-c2ccco2)n(-c2ccccc2)c1N | 83.4 µM (inactive) | > 100 µM (inactive) | > 100 µM (inactive) | > 100 µM (inactive) | > 100 µM (inactive) | – | 31.7 µM (inactive) | > 100 µM (inactive) | > 100 µM (inactive) | 29.5 µM (inactive) | > 100 µM (inactive) | > 100 µM (inactive) | > 100 µM (inactive) | 22.6 µM (inactive) | – | 94.4 µM (inactive) | 11.7 µM (inactive) | > 100 µM (inactive) | > 100 µM (inactive) | 98.2 µM (inactive)
C#C[C@]1(O)CC[C@H]2[C@@H]3CCC4=C/C(=N/CCOC(=O)c5cccc6cc7ccccc7nc56)CC[C@@H]4[C@H]3CC[C@@]21C | 34.5 µM (inactive) | 29.2 µM (inactive) | 27.1 µM (inactive) | > 100 µM (inactive) | 28.4 µM (inactive) | 14.3 µM (inactive) | 16.4 µM (inactive) | 27.3 µM (inactive) | 37.6 µM (inactive) | > 100 µM (inactive) | 17.9 µM (inactive) | 26 µM (inactive) | 40.5 µM (inactive) | 10 µM (inactive) | 75.2 µM (inactive) | 64.4 µM (inactive) | 16.8 µM (inactive) | 30.5 µM (inactive) | – | –
Cc1c2c(c(C)c3c[n+](C)ccc13)Oc1ccccc1O2 | 6.62 µM (inactive) | 34.9 µM (inactive) | 22.8 µM (inactive) | 13.3 µM (inactive) | 20 µM (inactive) | 3.13 µM (inactive) | 24.6 µM (inactive) | 15.1 µM (inactive) | 18.6 µM (inactive) | 5.66 µM (inactive) | 4.42 µM (inactive) | 9.42 µM (inactive) | 18.2 µM (inactive) | 6.05 µM (inactive) | 13.7 µM (inactive) | 23.5 µM (inactive) | 2.57 µM (inactive) | 94.4 µM (inactive) | 6.56 µM (inactive) | –
C(=N\c1ccc(-c2nc3ccccc3s2)cc1)/c1ccco1 | 83 µM (inactive) | 44.8 µM (inactive) | 82 µM (inactive) | – | 70 µM (inactive) | > 100 µM (inactive) | – | 64.3 µM (inactive) | 72.9 µM (inactive) | 56.4 µM (inactive) | 44.5 µM (inactive) | 59.6 µM (inactive) | > 100 µM (inactive) | 64.9 µM (inactive) | > 100 µM (inactive) | 83.8 µM (inactive) | 41.6 µM (inactive) | 62.4 µM (inactive) | 43.5 µM (inactive) | 50.2 µM (inactive)
Cc1cc(N(CCCCl)CCCCl)ccc1/C=N/c1cccc(Cl)c1 | 14.2 µM (inactive) | 13.1 µM (inactive) | 25 µM (inactive) | 13 µM (inactive) | 14.6 µM (inactive) | 14.3 µM (inactive) | 14 µM (inactive) | 17.7 µM (inactive) | – | < 0.01 µM (active) | 17.5 µM (inactive) | 12.4 µM (inactive) | 1.2 µM (inactive) | 11.9 µM (inactive) | 17.4 µM (inactive) | 19.1 µM (inactive) | 0.45 µM (active) | 10.5 µM (inactive) | < 0.01 µM (active) | 11.8 µM (inactive)
CC1CNC(c2ccc(CN3CCC(CCCC4CCN(Cc5ccc(C6=NC(C)CN6)cc5)CC4)CC3)cc2)=N1 (centres undefined) | > 100 µM (inactive) | > 100 µM (inactive) | 29 µM (inactive) | > 100 µM (inactive) | 30.9 µM (inactive) | > 100 µM (inactive) | 21.2 µM (inactive) | 17.2 µM (inactive) | 17.5 µM (inactive) | 32.9 µM (inactive) | 23.5 µM (inactive) | 19.7 µM (inactive) | 25.3 µM (inactive) | 71.3 µM (inactive) | > 100 µM (inactive) | 25.5 µM (inactive) | 50 µM (inactive) | > 100 µM (inactive) | 14.8 µM (inactive) | –
CC(C)(C)C1=C(Br)C(O)(C(C)(C)C)OP1(=O)c1ccccc1 (centres undefined) | > 100 µM (inactive) | > 100 µM (inactive) | – | > 100 µM (inactive) | > 100 µM (inactive) | > 100 µM (inactive) | > 100 µM (inactive) | > 100 µM (inactive) | > 100 µM (inactive) | – | > 100 µM (inactive) | > 100 µM (inactive) | > 100 µM (inactive) | > 100 µM (inactive) | > 100 µM (inactive) | > 100 µM (inactive) | > 100 µM (inactive) | – | > 100 µM (inactive) | –
Nc1nc(=O)c(/N=N/c2ccccc2)c(C(=O)O)[nH]1 | 71.6 µM (inactive) | > 100 µM (inactive) | 61.8 µM (inactive) | 37.9 µM (inactive) | 45.5 µM (inactive) | > 100 µM (inactive) | > 100 µM (inactive) | > 100 µM (inactive) | > 100 µM (inactive) | > 100 µM (inactive) | 52.7 µM (inactive) | > 100 µM (inactive) | > 100 µM (inactive) | > 100 µM (inactive) | > 100 µM (inactive) | > 100 µM (inactive) | – | > 100 µM (inactive) | – | 35.3 µM (inactive)
Cn1c(N/N=C/c2ccccc2)nc(-c2ccc3c(c2)OCO3)c(C#N)c1=O | > 100 µM (inactive) | 59.3 µM (inactive) | > 100 µM (inactive) | 39.9 µM (inactive) | > 100 µM (inactive) | 48.5 µM (inactive) | 14 µM (inactive) | 73.8 µM (inactive) | > 100 µM (inactive) | – | > 100 µM (inactive) | 61.7 µM (inactive) | > 100 µM (inactive) | 22.8 µM (inactive) | > 100 µM (inactive) | > 100 µM (inactive) | > 100 µM (inactive) | 77.3 µM (inactive) | – | 25.5 µM (inactive)
CCOC(=O)c1c(NC(=O)c2ccccc2)sc2c1CCC2 | > 100 µM (inactive) | > 100 µM (inactive) | > 100 µM (inactive) | > 100 µM (inactive) | > 100 µM (inactive) | > 100 µM (inactive) | > 100 µM (inactive) | – | > 100 µM (inactive) | > 100 µM (inactive) | – | – | > 100 µM (inactive) | > 100 µM (inactive) | – | – | > 100 µM (inactive) | > 100 µM (inactive) | – | > 100 µM (inactive)
Cc1ccc(-c2cc(-c3ccc(Cl)cc3)nc(/N=C3\C(=O)N(CN(C)C)c4ccccc43)n2)cc1 | 54.6 µM (inactive) | 64.1 µM (inactive) | 64 µM (inactive) | 7.89 µM (inactive) | 46.1 µM (inactive) | 54.8 µM (inactive) | > 100 µM (inactive) | 17.1 µM (inactive) | 19.4 µM (inactive) | > 100 µM (inactive) | 20.8 µM (inactive) | 41.2 µM (inactive) | > 100 µM (inactive) | 58.9 µM (inactive) | > 100 µM (inactive) | > 100 µM (inactive) | 28.8 µM (inactive) | 90.8 µM (inactive) | – | –
O=C(N/N=C(COc1ccccc1)\N=C\c1cccnc1)c1ccncc1 | > 100 µM (inactive) | > 100 µM (inactive) | > 100 µM (inactive) | > 100 µM (inactive) | > 100 µM (inactive) | > 100 µM (inactive) | > 100 µM (inactive) | > 100 µM (inactive) | > 100 µM (inactive) | > 100 µM (inactive) | > 100 µM (inactive) | > 100 µM (inactive) | > 100 µM (inactive) | > 100 µM (inactive) | > 100 µM (inactive) | > 100 µM (inactive) | > 100 µM (inactive) | – | > 100 µM (inactive) | –
COC(=O)[C@@H]1COC(=O)N1 | > 100 µM (inactive) | > 100 µM (inactive) | > 100 µM (inactive) | > 100 µM (inactive) | > 100 µM (inactive) | > 100 µM (inactive) | > 100 µM (inactive) | > 100 µM (inactive) | > 100 µM (inactive) | > 100 µM (inactive) | > 100 µM (inactive) | > 100 µM (inactive) | > 100 µM (inactive) | > 100 µM (inactive) | > 100 µM (inactive) | > 100 µM (inactive) | > 100 µM (inactive) | > 100 µM (inactive) | > 100 µM (inactive) | –
O=C(CCc1ccc(O)cc1)c1c(O)cc(O)cc1OC1OC(CO)C(O)C(O)C1O (centres undefined) | > 100 µM (inactive) | > 100 µM (inactive) | > 100 µM (inactive) | – | > 100 µM (inactive) | > 100 µM (inactive) | – | > 100 µM (inactive) | > 100 µM (inactive) | – | – | > 100 µM (inactive) | > 100 µM (inactive) | – | > 100 µM (inactive) | > 100 µM (inactive) | > 100 µM (inactive) | > 100 µM (inactive) | > 100 µM (inactive) | –
